From ChEMBL document CHEMBL1649420, “Identifying chelators for metalloprotein inhibitors using a fragment-based approach” (J Med Chem, 2011)

Assays:
[1] = target: Neutrophil collagenase (Homo sapiens) (UniProt P22894); conditions: at 1 mM;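 note: recombinant human MMP8 enzyme, percent inhibition read after 30 min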
[2] = target: Stromelysin-1 (Homo sapiens) (UniProt P08254); conditions: at 1 mM;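 note: recombinant enzyme, inhibition read after a 30 min incubation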
[3] = target: T1, Interstitial collagenase (Homo sapiens) (UniProt P03956); conditions: at 1 mM;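 note: recombinant human enzyme, with inhibition measured after 30 min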
T1 sequence (whole entry): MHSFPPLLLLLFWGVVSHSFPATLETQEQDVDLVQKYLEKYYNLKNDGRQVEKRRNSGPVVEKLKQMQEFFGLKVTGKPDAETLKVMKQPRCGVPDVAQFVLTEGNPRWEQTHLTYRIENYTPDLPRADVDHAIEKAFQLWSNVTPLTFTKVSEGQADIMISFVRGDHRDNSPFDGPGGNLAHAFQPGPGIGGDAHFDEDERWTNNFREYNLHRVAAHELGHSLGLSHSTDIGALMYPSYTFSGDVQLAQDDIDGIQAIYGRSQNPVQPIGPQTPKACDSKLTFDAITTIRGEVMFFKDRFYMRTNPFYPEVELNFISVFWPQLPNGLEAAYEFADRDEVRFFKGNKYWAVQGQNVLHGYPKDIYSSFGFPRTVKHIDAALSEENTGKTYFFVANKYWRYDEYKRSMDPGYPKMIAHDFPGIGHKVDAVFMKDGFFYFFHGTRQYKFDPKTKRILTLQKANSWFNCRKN

[4] = target: Matrix metalloproteinase-9 (Homo sapiens) (UniProt P14780); conditions: at 1 mM;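 note: recombinant human MMP9, activity read after 30 min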
Chain of Matrix metalloproteinase-9 (Homo sapiens) (P14780 whole entry): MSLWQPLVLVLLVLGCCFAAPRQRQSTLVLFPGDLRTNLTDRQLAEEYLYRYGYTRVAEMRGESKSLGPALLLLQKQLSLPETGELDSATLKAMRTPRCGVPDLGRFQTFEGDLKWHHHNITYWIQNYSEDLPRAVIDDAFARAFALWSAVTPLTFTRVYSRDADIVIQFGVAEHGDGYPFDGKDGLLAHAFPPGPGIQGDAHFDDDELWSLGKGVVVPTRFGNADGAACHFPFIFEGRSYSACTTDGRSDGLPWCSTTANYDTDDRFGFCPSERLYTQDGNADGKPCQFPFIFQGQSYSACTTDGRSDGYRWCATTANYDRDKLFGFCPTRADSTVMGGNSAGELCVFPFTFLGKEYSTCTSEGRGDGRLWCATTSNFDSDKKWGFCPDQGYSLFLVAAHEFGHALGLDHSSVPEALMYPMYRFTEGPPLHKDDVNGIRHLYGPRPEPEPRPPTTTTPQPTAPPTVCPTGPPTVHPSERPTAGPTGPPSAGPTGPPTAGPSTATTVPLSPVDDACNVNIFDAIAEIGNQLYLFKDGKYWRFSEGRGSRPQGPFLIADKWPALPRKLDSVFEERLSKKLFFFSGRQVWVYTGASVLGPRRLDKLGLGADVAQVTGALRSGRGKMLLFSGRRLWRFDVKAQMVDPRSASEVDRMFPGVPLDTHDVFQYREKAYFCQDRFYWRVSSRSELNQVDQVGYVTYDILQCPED

[5] = target: T2, Lethal factor (Bacillus anthracis) (UniProt P15917); conditions: at 1 mM
T2 sequence (whole entry): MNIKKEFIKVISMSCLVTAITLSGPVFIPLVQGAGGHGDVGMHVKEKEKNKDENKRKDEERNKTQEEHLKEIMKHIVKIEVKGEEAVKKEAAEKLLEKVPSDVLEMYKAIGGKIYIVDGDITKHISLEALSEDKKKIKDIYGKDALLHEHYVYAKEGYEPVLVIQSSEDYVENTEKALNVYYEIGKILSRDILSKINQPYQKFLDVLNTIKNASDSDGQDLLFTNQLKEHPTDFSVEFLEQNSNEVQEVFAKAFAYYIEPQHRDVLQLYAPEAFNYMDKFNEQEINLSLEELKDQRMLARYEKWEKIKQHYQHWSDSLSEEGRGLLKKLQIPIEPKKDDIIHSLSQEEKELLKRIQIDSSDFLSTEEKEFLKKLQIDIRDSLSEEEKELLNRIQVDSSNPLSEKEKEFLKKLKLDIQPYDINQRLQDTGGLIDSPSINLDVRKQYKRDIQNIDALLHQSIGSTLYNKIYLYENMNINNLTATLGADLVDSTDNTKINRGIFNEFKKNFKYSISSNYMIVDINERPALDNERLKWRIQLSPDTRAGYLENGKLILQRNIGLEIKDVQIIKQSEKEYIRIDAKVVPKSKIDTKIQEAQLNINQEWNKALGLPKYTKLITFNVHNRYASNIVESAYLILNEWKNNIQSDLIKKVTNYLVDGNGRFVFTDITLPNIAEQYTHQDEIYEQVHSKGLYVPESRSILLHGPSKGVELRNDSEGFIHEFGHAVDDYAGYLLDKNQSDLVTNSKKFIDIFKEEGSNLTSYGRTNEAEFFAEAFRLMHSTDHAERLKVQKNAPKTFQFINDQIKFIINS

[6] = target: T3, Nitric oxide synthase, inducible (Mus musculus) (UniProt P29477); conditions: at 1 mM;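 note: recombinant enzyme, activity read out colorimetrically after 40 min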
T3 sequence (whole entry): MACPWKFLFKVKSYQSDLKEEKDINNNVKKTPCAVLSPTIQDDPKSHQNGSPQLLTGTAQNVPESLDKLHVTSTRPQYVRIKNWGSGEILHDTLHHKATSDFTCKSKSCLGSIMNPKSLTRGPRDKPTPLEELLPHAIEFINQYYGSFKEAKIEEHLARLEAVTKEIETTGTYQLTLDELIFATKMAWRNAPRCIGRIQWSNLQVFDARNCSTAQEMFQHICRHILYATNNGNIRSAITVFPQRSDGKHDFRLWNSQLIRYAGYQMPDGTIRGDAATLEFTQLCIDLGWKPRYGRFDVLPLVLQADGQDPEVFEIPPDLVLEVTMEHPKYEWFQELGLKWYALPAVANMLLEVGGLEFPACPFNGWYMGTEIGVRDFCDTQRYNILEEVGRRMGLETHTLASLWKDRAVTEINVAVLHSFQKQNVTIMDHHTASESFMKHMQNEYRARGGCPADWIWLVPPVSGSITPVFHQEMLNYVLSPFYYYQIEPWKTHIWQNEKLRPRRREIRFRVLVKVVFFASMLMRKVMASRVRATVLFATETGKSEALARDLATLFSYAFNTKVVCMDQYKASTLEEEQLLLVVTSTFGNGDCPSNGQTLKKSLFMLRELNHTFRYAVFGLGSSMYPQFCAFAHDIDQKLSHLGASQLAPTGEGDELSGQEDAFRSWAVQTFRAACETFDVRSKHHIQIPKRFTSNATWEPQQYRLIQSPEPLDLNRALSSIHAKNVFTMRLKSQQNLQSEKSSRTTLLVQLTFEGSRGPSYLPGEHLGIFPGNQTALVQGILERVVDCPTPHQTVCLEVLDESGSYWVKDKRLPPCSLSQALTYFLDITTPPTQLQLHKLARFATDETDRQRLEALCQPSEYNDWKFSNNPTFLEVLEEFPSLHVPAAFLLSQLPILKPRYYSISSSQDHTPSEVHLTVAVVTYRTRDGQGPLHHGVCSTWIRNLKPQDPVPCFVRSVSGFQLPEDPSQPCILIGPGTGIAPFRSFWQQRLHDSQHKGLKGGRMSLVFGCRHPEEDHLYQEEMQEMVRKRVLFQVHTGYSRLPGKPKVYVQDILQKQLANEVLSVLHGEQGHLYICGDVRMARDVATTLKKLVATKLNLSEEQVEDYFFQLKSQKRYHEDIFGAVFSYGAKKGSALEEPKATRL

[7] = target: T4, Tyrosinase (Agaricus bisporus) (UniProt O42713); conditions: at 1 mM;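 note: inhibition measured at 10 min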
T4 sequence (whole entry): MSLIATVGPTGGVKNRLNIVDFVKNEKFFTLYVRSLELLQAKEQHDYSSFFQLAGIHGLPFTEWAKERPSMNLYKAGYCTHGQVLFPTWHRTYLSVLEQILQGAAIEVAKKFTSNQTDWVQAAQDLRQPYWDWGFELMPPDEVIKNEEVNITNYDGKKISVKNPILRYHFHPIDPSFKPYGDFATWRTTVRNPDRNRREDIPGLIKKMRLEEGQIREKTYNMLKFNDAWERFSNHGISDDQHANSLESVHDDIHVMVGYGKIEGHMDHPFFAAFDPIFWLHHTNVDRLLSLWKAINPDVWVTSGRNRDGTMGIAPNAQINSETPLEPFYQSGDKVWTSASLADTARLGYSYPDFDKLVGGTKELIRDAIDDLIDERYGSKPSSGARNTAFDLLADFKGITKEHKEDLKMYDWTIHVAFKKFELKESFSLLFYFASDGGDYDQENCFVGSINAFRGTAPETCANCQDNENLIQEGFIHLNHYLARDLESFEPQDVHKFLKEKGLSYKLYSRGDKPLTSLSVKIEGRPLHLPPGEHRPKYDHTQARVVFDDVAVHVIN

[8] = target: 72 kDa type IV collagenase (Homo sapiens, UniProt P08253); conditions: at 1 mM;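 note: recombinant human enzyme, inhibition read after a 30 min incubation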
Chain of 72 kDa type IV collagenase (P08253 110-660 limits assumed): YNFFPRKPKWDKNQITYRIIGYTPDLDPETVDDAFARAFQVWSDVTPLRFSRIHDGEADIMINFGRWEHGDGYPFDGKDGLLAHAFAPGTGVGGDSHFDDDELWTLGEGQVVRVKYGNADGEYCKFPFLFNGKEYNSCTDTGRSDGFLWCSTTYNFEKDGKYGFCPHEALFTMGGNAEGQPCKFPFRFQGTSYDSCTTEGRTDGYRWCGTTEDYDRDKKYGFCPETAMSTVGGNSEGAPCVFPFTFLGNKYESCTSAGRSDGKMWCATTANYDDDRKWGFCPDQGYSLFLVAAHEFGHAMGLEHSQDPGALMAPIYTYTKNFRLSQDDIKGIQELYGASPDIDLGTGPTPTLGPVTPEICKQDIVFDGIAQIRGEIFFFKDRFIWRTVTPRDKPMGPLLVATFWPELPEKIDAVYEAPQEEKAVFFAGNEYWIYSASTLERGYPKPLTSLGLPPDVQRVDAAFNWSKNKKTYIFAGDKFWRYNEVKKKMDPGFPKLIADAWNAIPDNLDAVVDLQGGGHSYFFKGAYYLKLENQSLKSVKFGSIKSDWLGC

[9] = target: T5, Polyunsaturated fatty acid 5-lipoxygenase (Homo sapiens) (UniProt P09917); experiment: Inhibition of human recombinant 5-lipoxygenase at 1 mM after 10 mins by fluorescence assay
T5 sequence (whole entry): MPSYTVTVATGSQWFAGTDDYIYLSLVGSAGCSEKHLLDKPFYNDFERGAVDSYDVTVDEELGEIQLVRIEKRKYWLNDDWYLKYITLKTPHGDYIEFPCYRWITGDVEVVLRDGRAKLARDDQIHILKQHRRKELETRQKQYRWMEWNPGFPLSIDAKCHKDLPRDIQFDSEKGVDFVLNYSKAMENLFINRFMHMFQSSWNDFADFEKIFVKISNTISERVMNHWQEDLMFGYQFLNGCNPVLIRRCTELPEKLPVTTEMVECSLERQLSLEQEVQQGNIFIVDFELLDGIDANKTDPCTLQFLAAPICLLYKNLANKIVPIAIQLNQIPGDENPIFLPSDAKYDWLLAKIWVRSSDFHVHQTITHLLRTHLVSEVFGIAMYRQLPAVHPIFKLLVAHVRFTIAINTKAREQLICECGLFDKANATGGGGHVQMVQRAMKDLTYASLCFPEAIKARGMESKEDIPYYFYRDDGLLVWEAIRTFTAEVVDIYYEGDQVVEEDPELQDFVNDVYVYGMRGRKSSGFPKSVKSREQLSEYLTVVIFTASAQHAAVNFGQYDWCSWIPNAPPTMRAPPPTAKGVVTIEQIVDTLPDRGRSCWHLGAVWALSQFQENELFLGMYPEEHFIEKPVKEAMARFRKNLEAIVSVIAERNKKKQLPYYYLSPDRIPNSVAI

Chain of Neutrophil collagenase (Homo sapiens) (P22894 101-467 limits assumed): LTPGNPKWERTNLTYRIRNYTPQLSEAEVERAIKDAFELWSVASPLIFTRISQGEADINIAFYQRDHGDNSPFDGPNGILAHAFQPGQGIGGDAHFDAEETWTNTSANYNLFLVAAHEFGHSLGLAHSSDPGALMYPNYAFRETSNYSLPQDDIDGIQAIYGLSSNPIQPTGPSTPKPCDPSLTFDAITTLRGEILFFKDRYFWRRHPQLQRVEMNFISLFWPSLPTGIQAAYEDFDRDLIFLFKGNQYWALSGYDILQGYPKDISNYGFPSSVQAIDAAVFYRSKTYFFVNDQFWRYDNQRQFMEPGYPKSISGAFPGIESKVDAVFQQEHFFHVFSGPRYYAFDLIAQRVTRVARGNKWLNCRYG
Chain of Stromelysin-1 (Homo sapiens) (P08254 100-477 limits assumed): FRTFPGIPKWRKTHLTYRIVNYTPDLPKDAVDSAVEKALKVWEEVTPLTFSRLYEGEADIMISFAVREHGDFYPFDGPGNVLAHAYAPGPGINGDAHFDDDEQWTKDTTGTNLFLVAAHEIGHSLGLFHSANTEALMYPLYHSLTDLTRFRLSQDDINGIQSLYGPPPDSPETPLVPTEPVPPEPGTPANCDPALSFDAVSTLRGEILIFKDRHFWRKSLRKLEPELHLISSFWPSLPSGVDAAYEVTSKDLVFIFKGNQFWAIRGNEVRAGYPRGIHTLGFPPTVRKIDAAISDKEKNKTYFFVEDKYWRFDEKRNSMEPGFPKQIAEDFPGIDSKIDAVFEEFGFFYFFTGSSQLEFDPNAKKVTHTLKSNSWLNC

| Compound | inhibition [1] [%] | inhibition [2] [%] | inhibition [3] [%] | inhibition [4] [%] | inhibition [5] [%] | inhibition [6] [%] | inhibition [7] [%] | inhibition [8] [%] | inhibition [9] [%] |
| --- | --- | --- | --- | --- | --- | --- | --- | --- | --- |
| O=C(O)c1cccc(=O)n1O | 89 | 86 | 84 | 66 | 47 | -5 | 94 | 60 |  |
| CC(C)c1cccc(=O)c(O)c1 | 100 | 98 | 95 | 99 | 66 | 18 | 54 | 90 |  |
| NC(=O)c1ccccc1O | 24 | 1 | 21 | 23 | 0 | 14 | -8 | -1 |  |
| COc1ccccc1O | 4 | -4 | 8 | -6 | 13 | 13 |  | -5 | 60 |
| c1cnc2c(c1)ccc1cccnc12 | 100 | 91 | 71 | 86 | 67 | 30 |  | 100 | 4 |
| O=C(O)c1ccc(O)cc1O | -1 | 3 | 14 | -8 | 7 | 16 | 91 | -7 |  |
| CCc1c(O)c(=O)ccn1C | 34 | 20 | 34 | 13 | 4 | 1 |  | 32 | 78 |
| OCc1ccnc(-c2cc(CO)ccn2)c1 | 100 | 96 | 72 | 58 | 9 | 21 |  | 77 | 41 |
| Cc1ccc2cccc(O)c2n1 | 63 | 71 | 47 | 34 | 44 | 7 |  | 65 | 59 |
| CCc1occc(=O)c1O | 34 | 38 | 39 | 28 | 25 | 8 | -7 | 33 |  |
| O=C(O)c1ccc2cccc(O)c2n1 | 88 | 94 | 82 | 68 | 89 | 29 | 75 | 84 |  |
| Cc1cc(=O)c(O)c(CO)o1 | 53 | 47 | 60 | 44 | 14 | 9 | 11 | 45 |  |
| Cc1occc(=O)c1O | 19 | 34 | 41 | 32 | 19 | 6 | -6 | 38 |  |
| Nc1ccc2cccc(O)c2n1 | 91 | 87 | 96 | 100 | 59 | 38 |  | 100 | 66 |
| CCc1c(O)c(=O)ccn1CC | 31 | 9 | 25 | 15 |  | 8 |  | 17 | 83 |
| O=C(O)c1ccc2ccccc2n1 | 29 | 73 | 52 | 37 | 45 | 11 | 58 | 37 |  |
